Experimental findings from PMC8760490, “Discovery of novel furanylbenzamide inhibitors that target oncogenic tyrosine phosphatase SHP2 in leukemia cells” (The Journal of Biological Chemistry, 2021) are described below.

What all share (format): biochemical
Experiment [1] concerns the target T1, full-length SHP2-E76K oncogenic mutant (Homo sapiens, UniProt Q06124, E76K).
T1 construct: Recombinant human full-length SHP2 (1–594) WT and E76K mutants; made in house
T1 sequence (Q06124 1-593 E76K): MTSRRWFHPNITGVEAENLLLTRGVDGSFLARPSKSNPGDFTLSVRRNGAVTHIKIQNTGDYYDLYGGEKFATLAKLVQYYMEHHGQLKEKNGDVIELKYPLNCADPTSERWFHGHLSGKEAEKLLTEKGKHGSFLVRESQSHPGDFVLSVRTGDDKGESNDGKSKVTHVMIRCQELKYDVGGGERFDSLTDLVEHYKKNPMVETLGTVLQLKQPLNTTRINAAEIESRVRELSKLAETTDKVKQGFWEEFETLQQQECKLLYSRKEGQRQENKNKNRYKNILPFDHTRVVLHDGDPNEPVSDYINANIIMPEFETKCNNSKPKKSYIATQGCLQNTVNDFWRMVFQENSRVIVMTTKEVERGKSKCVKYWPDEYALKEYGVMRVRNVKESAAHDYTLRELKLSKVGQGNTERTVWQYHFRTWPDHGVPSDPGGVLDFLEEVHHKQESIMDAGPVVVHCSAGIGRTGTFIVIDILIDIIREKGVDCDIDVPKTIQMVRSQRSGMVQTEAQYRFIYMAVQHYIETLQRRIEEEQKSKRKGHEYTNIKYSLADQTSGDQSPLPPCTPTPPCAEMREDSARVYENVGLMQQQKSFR
The experiment is described as follows: DiFMUP fluorescence phosphatase inhibition assay, SHP2-E76K. To be noted: for IC50: DiFMUP at Km (20 μM), 10-point dose–response, pH 6.0. An excerpt:
(§1) To test the synthesized compounds for their potential to inhibit SHP2 activity, a fluorescence intensity-based assay using 6,8-difluoro-4-methylumbelliferyl phosphate (DiFMUP) as the substrate was adapted for three recombinant SHP2 constructs: (1) the SHP2 catalytic domain (SHP2cat; residues 248–527), (2) the full-length SHP2-E76K oncogenic mutant, and (3) the full-length SHP2 WT (SHP2-WT). The recombinant SHP2 proteins were expressed and purified as described previously ([36]). A dually phosphorylated peptide derived from the insulin receptor substrate 1 (IRS-1) served as a surrogate binding protein and was used to activate SHP2-WT ([30], [36]). […] Michaelis–Menten experiments to determine the DiFMUP Michaelis–Menten constant (Km) for each SHP2 construct were performed as described previously ([36]) and yielded the following values: SHP2-WT, Km = 60 μM; SHP2-E76K, Km = 20 μM; and SHP2cat, Km = 20 μM. Relative maximum rates (Vmax) of the DiFMUP reactions expressed as relative fluorescence units per minute (RFU/min) were as follows: SHP2-WT, Vmax = 871 RFU/min; SHP2-E76K, Vmax = 2730 RFU/min; and SHP2cat, Vmax = 2912 RFU/min. IC50 values for each compound were determined from initial rates in 10-point dose–response assays using DiFMUP at a concentration corresponding to its Km value for the respective SHP2 construct. […] Replacements for the benzothiophenone were explored using analog #10.
(§2) Recombinant human full-length SHP2 (1–594) WT and E76K mutants, as well as the SHP2cat (248–527), were expressed and purified as described before ([36], [41]). Recombinant human PTP1B (1–300) and the codon-optimized STEP (280–566) catalytic domains were cloned into PET-15b and expressed as N-His-tagged fusion proteins. For expression, transformed BL21(DE3) cells were grown and induced similar as described for SHP2. Collected cells were resuspended in lysis buffer (25 mM Tris, pH 7.5, 300 mM NaCl, 50 mM imidazole, and 10% glycerol) with 100 mg/l RNaseA and were lysed with two passages using a microfluidizer. The lysate was clarified by centrifugation at 15,000g for 50 min and applied to nickel–nitrilotriacetic acid resin. The column resin was washed, and the PTP1B or STEP protein was eluted in lysis buffer at 300 mM imidazole. The PTP1B or STEP protein was further purified by S75 size-exclusion chromatography in 50 mM Tris, pH 7.5, 50 mM NaCl. The eluted peak fractions were supplemented with tris(2-carboxyethyl)phosphine to 10 mM, concentrated by ultrafiltration, and stored at −80 °C. The purified yield of PTP1B was 33 mg/l cell culture; the yield of STEP was 16 mg/l cell culture.
(§3) SHP2 inhibitors were tested at RT in a 384-well plate format standard phosphatase fluorescence intensity assay using DiFMUP (Invitrogen/Thermo Fisher Scientific) as a substrate and a total reaction volume of 25 μl. SHP2 inhibitors or vehicle (DMSO) were spotted in triplicate into a black Greiner FLUOTRAC 200 384-well microplate (catalog no.: 781076; Greiner) for a 10-point dose–response assay using an Echo 555 Liquid Handler (Labcyte, Inc). PTP working solutions were prepared at a 0.625 nM concentration (for a final concentration of 0.5 nM) in buffer containing 50 mM Bis–Tris, pH 6.0, 50 mM NaCl, 5 mM DTT, and 0.01% Tween-20. Prior to the assay, a dually phosphorylated IRS-1 peptide (625 nM [500 nM final] ([30])) was added to full-length WT SHP2 working solutions and incubated for 20 min. DiFMUP working solutions at 5× final concentration were prepared in 50 mM Bis–Tris, pH 6.0, 50 mM NaCl, and 0.01% Tween-20. About 20 μl of PTP working solution was dispensed into the microplate and incubated with inhibitor for 20 min at RT. […] The reaction was initiated by addition of 5 μl DiFMUP working solutions. Fluorescence intensity was measured in kinetic mode (every minute for 7 or 10 min) using a Tecan Spark Multimode Microplate Reader (Tecan) with an excitation wavelength of 360 nm and an emission wavelength of 460 nm. […]

For experiment [2], the target named is T2, full-length SHP2 WT (SHP2-WT) (Homo sapiens, UniProt Q06124).
T2 construct: Recombinant human full-length SHP2 (1–594) WT and E76K mutants; made in house
Kind of experiment: DiFMUP fluorescence phosphatase inhibition assay, SHP2-WT activated with IRS-1 peptide. To be noted: DiFMUP at Km (60 μM), pH 6.0.
Source text: as §1, §2, §3

The target in experiment [3] is T3, SHP2 catalytic domain (SHP2cat; residues 248–527) (Homo sapiens, UniProt Q06124).
T3 construct: the SHP2 catalytic domain (SHP2cat; residues 248–527); made in house
T3 sequence (Q06124 248-527): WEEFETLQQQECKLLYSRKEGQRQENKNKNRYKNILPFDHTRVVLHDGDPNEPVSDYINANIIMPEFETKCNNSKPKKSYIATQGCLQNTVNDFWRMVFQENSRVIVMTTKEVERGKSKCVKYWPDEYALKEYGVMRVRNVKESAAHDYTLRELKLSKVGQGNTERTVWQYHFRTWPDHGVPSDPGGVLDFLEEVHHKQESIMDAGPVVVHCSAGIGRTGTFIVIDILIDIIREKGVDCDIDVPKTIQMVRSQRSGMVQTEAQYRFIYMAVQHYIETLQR
Kind of experiment: DiFMUP fluorescence phosphatase inhibition assay, SHP2cat. To be noted: DiFMUP at Km (20 μM), pH 6.0; read-out: SHP2cat; IC50.
Source text: as §1, §2, §3

Turning to `O=C(NCCO)c1cc(-c2ccc(/C=C3\Sc4ccccc4C3=O)o2)ccc1O` [SBI-1457, (Z)-2-Hydroxy-N-(2-hydroxyethyl)-5-(5-((3-oxobenzo[b]thiophen-2(3H)-ylidene)methyl)furan-2-yl)benzamide], the IC50 in experiment [1] and in experiment [2] was above 100 µM throughout.
For the compound `O=C(O)c1cc(-c2ccc(/C=C3\Oc4ccccc4C3=O)o2)ccc1O` [SBI-0165, (Z)-2-Hydroxy-5-(5-((3-oxobenzofuran-2(3H)-ylidene)methyl)furan-2-yl)benzoic acid], the IC50 was 7.2 µM in experiment [1], 13 µM in experiment [2] and 2.4 µM in experiment [3].
On the same counts, the results for `O=C1CCCC1=Cc1ccc(-c2ccc(O)c(C(=O)O)c2)o1` [SBI-3191, 2-Hydroxy-5-(5-((2-oxocyclopentylidene)methyl)furan-2-yl)benzoic acid] are 6 µM, 24 µM and 7.4 µM.
As for `O=C1/C(=C/c2ccc(-c3ccc(O)c(C(=O)N4CCNCC4)c3)o2)Sc2ccccc21` [SBI-2124, (Z)-2-((5-(4-Hydroxy-3-(piperazine-1-carbonyl)phenyl)furan-2-yl)methylene)benzo[b]thiophen-3(2H)-one], the results for the IC50 in experiment [1] and in experiment [2] were 91 µM and above 100 µM, respectively.
For the compound `O=C(O)c1cc(-c2ccc(C=C3Cc4ccccc4C3=O)o2)ccc1O` [SBI-3204, 2-Hydroxy-5-(5-((1-oxo-1,3-dihydro-2H-inden-2-ylidene)methyl)furan-2-yl)benzoic acid], the IC50 in experiment [1] amounted to 10 µM; in experiment [2] it was 15 µM; in experiment [3], 4.5 µM.
Take `O=C1/C(=C/c2ccc(-c3ccccc3)o2)Sc2ccccc21` [SBI-3570, (Z)-2-((5-phenylfuran-2-yl)methylene)benzo[b]thiophen-3(2H)-one]: the IC50 in experiment [1] and in experiment [2] was above 100 µM throughout.
Turning to `O=C1CCCCC1=Cc1ccc(-c2ccc(O)c(C(=O)O)c2)o1` [SBI-3194, 2-Hydroxy-5-(5-((2-oxocyclohexylidene)methyl)furan-2-yl)benzoic acid], the IC50 came out at 39 µM in experiment [1] and 56 µM in experiment [2].
For the compound `CN1CCN(C(=O)c2cc(-c3ccc(/C=C4\Sc5ccccc5C4=O)o3)ccc2O)CC1` [SBI-2125, (Z)-2-((5-(4-Hydroxy-3-(4-methylpiperazine-1-carbonyl)phenyl)furan-2-yl)methylene)benzo[b]thiophen-3(2H)-one], the IC50 in experiment [1] and in experiment [2] was above 100 µM each time.
For `Nc1cccc(NC(=O)c2cc(-c3ccc(/C=C4\Sc5ccccc5C4=O)o3)ccc2O)c1` [SBI-2126, (Z)-N-(3-Aminophenyl)-2-hydroxy-5-(5-((3-oxobenzo[b]thiophen-2(3H)-ylidene)methyl)furan-2-yl)benzamide], the IC50 was 7.2 µM in experiment [1], 18 µM in experiment [2] and 5 µM in experiment [3].
Take `O=C(Nc1ccccc1)c1cccc(-c2ccc(/C=C3\Sc4ccccc4C3=O)o2)c1` [SBI-5923, (Z)-3-(5-((3-Oxobenzo[b]thiophen-2(3H)-ylidene)methyl)furan-2-yl)-N-phenylbenzamide]: the figures for the IC50 in experiment [1] and in experiment [2] were 52 µM and 62 µM, respectively.
`O=C1/C(=C/c2ccc(-c3ccc(O)cc3)o2)Sc2ccccc21` [SBI-4167, (Z)-2-((5-(4-Hydroxyphenyl)furan-2-yl)methylene)benzo[b]thiophen-3(2H)-one]: the IC50 in experiment [1] is 79 µM; in experiment [2] it was above 100 µM. The “loss in potency compared with #01” value in experiment [1] (E76K IC50) is on record as around 165 fold.
As to `O=C(Nc1ccccc1)c1cc(-c2ccco2)ccc1O` [SBI-4232, 5-(Furan-2-yl)-2-hydroxy-N-phenylbenzamide], the IC50 in experiment [1] and in experiment [2] was above 100 µM each time.
In the case of `O=C1/C(=C/c2ccc(-c3ccc(O)c(C(=O)N4CCCCC4)c3)o2)Sc2ccccc21` [SBI-2131, (Z)-2-((5-(4-Hydroxy-3-(piperidine-1-carbonyl)phenyl)furan-2-yl)methylene)benzo[b]thiophen-3(2H)-one], the IC50 in experiment [1] came to 15 µM; in experiment [2], 52 µM; in experiment [3], 4.3 µM.
In the case of `COc1ccc(-c2ccc(/C=C3\Sc4ccccc4C3=O)o2)cc1C(=O)Nc1ccccc1` [SBI-2349, (Z)-2-Methoxy-5-(5-((3-oxobenzo[b]thiophen-2(3H)-ylidene)methyl)furan-2-yl)-N-phenylbenzamide], the IC50 in experiment [1] came out at 84 µM; in experiment [2], 87 µM.
As for `CC(C)NC(=O)c1cc(-c2ccc(/C=C3\Sc4ccccc4C3=O)o2)ccc1O` [SBI-0287, (Z)-2-Hydroxy-N-isopropyl-5-(5-((3-oxobenzo[b]thiophen-2(3H)-ylidene)methyl)furan-2-yl)benzamide], the IC50 in experiment [1] amounted to 20 µM; in experiment [2], 53 µM.
On the same counts, the results for `O=C(Nc1ccccc1)c1cc(-c2ccc(/C=C3\Sc4ccccc4C3=O)o2)ccc1F` [SBI-2348, (Z)-2-Fluoro-5-(5-((3-oxobenzo[b]thiophen-2(3H)-ylidene)methyl)furan-2-yl)-N-phenylbenzamide] are above 100 µM and above 100 µM.
On the same counts, the results for `O=C(NCc1ccccc1)c1cccc(-c2ccc(/C=C3\Sc4ccccc4C3=O)o2)c1` [SBI-2129, (Z)-N-benzyl-3-(5-((3-oxobenzo[b]thiophen-2(3H)-ylidene)methyl)furan-2-yl)benzamide] are 65 µM and above 100 µM.
